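Following 48 hours of exposure in 96-well plates, responses at five concentrations were used to interpolate endpoints linearly. GI50 marks 50% less growth.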 Active and inactive are the calls of the source. No stated cut-off is given here; in the data, active = GI50 up to about 1.1 µM and inactive = higher.
Experiments:
Test in all cases: DTP human tumour cell line panel, 48 h
[1] = test system: SF-295
[2] = test system: SK-MEL-5
[3] = test system: CAKI-1
[4] = test system: Malme-3M
[5] = test system: OVCAR-5
[6] = test system: RPMI-8226
[7] = test system: SK-MEL-2
[8] = test system: UACC-62
[9] = test system: 786-0
[10] = test system: HCT-15
[11] = test system: HOP-62
[12] = test system: NCI-H226
[13] = test system: UACC-257
[14] = test system: SF-268
[15] = test system: HT-29
[16] = test system: KM12
[17] = test system: HCC 2998
[18] = test system: K562
[19] = test system: COLO 205
[20] = test system: SN12C
[21] = test system: NCI-H23
[22] = test system: M19-MEL
[23] = test system: TK-10
[24] = test system: M14
[25] = test system: LXFL 529
[26] = test system: DMS-114
[27] = test system: MOLT-4
[28] = test system: OVCAR-8
[29] = test system: SF-539
[30] = test system: CCRF-CEM
[31] = test system: RXF 393
[32] = test system: SNB-75
[33] = test system: UO-31
[34] = test system: LOX IMVI
[35] = test system: U-251
[36] = test system: OVCAR-3
[37] = test system: NCI-H460
[38] = test system: SW-620
[39] = test system: A549
[40] = test system: HCT-116
[41] = test system: HOP-92
[42] = test system: ACHN
[43] = test system: SK-OV-3
[44] = test system: SNB-78
[45] = test system: HL-60
[46] = test system: IGROV-1
[47] = test system: A498
[48] = test system: DLD-1
[49] = test system: KM-20L2
[50] = test system: EKVX
[51] = test system: SK-MEL-28

Compound: CN(C)c1ccc(/C=C(/C(=O)O)c2csc(-c3nc(/C(=C\c4ccc(N(C)C)cc4)C(=O)O)cs3)n2)cc1
- GI50 [1]: > 100 µM (inactive)
- GI50 [2]: 86.5 µM (inactive)
- GI50 [3]: > 100 µM (inactive)
- GI50 [4]: > 100 µM (inactive)
- GI50 [5]: > 100 µM (inactive)
- GI50 [6]: 46.1 µM (inactive)
- GI50 [7]: > 100 µM (inactive)
- GI50 [8]: 80.9 µM (inactive)
- GI50 [9]: 46.2 µM (inactive)
- GI50 [10]: 42.1 µM
- GI50 [11]: > 100 µM (inactive)
- GI50 [12]: > 100 µM (inactive)
- GI50 [13]: > 100 µM (inactive)
- GI50 [14]: > 100 µM (inactive)
- GI50 [15]: 44.7 µM (inactive)
- GI50 [16]: > 100 µM (inactive)
- GI50 [17]: > 100 µM (inactive)
- GI50 [18]: 41.7 µM (inactive)
- GI50 [19]: 93.3 µM (inactive)
- GI50 [20]: > 100 µM (inactive)
- GI50 [21]: > 100 µM (inactive)
- GI50 [22]: > 100 µM (inactive)
- GI50 [23]: > 100 µM (inactive)
- GI50 [24]: > 100 µM (inactive)
- GI50 [25]: 96.4 µM (inactive)
- GI50 [26]: 29.9 µM (inactive)
- GI50 [27]: 58.6 µM (inactive)
- GI50 [28]: > 100 µM (inactive)
- GI50 [29]: > 100 µM (inactive)
- GI50 [30]: 16.7 µM (inactive)
- GI50 [31]: > 100 µM (inactive)
- GI50 [32]: > 100 µM (inactive)
- GI50 [33]: 60.3 µM (inactive)
- GI50 [34]: 73.8 µM (inactive)
- GI50 [35]: > 100 µM (inactive)
- GI50 [36]: > 100 µM (inactive)
- GI50 [37]: > 100 µM (inactive)
- GI50 [38]: > 100 µM (inactive)
- GI50 [39]: > 100 µM (inactive)
- GI50 [40]: > 100 µM (inactive)
- GI50 [41]: > 100 µM (inactive)
- GI50 [42]: > 100 µM (inactive)
- GI50 [43]: > 100 µM (inactive)
- GI50 [44]: > 100 µM (inactive)
- GI50 [45]: 43 µM (inactive)
- GI50 [46]: > 100 µM (inactive)
- GI50 [47]: > 100 µM (inactive)
- GI50 [48]: > 100 µM (inactive)
- GI50 [49]: > 100 µM (inactive)
- GI50 [50]: > 100 µM (inactive)
- GI50 [51]: > 100 µM (inactive)

— ChEMBL document CHEMBL1201862, “PubChem BioAssay data set” (2004)
